What all share (type): cell-based
The target of test [1] is odr-10 non-functional mutant H110Y (Caenorhabditis elegans, UniProt Q18807, H110Y). The conditions noted are these: 500 μM diacetyl; wells H11 and H12.
Test [2] addresses T1, ODR-10 (Caenorhabditis elegans, UniProt Q18807).
T1 construct: expressed in transfected cells; host or cells: Saccharomyces cerevisiae Cyb-KAGMM (ste2- sst2- far1- gpa1-, gpa1/odr-3 chimaera integrated)
T1 sequence (Q18807 1-339): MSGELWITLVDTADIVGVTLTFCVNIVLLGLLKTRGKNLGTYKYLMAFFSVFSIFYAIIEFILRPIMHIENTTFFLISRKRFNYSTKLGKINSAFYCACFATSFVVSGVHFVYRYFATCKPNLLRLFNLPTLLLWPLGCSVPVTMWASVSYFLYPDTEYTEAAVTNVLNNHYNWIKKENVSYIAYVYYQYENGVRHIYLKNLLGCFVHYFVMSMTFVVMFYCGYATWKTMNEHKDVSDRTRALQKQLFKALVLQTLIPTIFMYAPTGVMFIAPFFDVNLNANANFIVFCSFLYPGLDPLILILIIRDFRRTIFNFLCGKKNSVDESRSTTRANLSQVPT
Put plainly: 96-well LacZ/ONPG screen, positive control odr-10. The conditions noted are these: 500 μM diacetyl.

The target of test [3] is T1, ODR-10. Description: Multiwell (48/96 well) LacZ/ONPG assay of yeast screening strain transformed with odr-10. To be noted: for Abs414 reading after 3 hours: 500 μM diacetyl. Here is the method: The method was as follows ([…] from Brouchon-[…] et al., 2003): • 1 mL of Saccharomyces cerevisiae Minimal Medium (SCMM)-His, -Leu was inoculated with a single colony of the screening strain transformed with odr-10 (lacZ/[…]^31 gpa1^-) at Abs600 nm=1, in a 96-well deep well plate. • The plate was incubated overnight (18 hours) at 30° C. with shaking at 900 rpm. • The culture from the well was diluted into fresh wells (96 or 48 well plate) to a final volume of 1 mL at the following yeast cell optical densities: • 1. Abs600=1 • 2. Abs600=0.5 • 3. Abs600=0.5 • Wells 1 and 2 above were induced with 500 μM of a diacetyl solution (made up fresh and kept on ice); 1M: 87 μL diacetyl+913 μL water; then diluted 1/10 in water and 5 μL added to 1 mL cells for a final concentration of 500 μM). All wells were incubated for 30° C. for 18 hours with shaking at 900 rpm. • The plate was centrifuged to pellet the cells, the supernatant was aspirated off and discarded and the pellet was resuspended in 120 μL of lysis buffer (100 mM sodium phosphate buffer, pH 7.5 (consisting of 82 mM Na2HPO4 and […] with 0.1% (w/v) sodium dodecyl sulfate). Initial absorbance was read at 414 nm in a plate-reading spectrophotometer. • The plate was shaken at 900 rpm for 10 min at 30° C. • Thirty microlitres of 2.5 mM o-nitrophenyl-β-D-galactopyranoside (ONPG) (10 mg ONPG dissolved in 130 μL dimethyl formamide is 250 mM, then dilute 1/100 in water for final concentration, which is 2.5 mM) was added and the plate was incubated at room temperature for between 5 minutes and 3 hours. • Eighty microlitres of a 1M Na2CO3 solution was added and the absorbance was read in a plate-based spectrophotometer, either at 414 nm or a spectrum was recorded for each well over the visible region. The assay was repeated with a range of different dilutions (1⁄4 to 1/20) of the starting yeast culture in the wells of either 96 or 48 deep-well plates (the former can contain a total of 2 mL and the latter 5 mL.) Normally dilutions required to reach Abs600 nm=1 are in the range of 1⁄2 to 1⁄4. This experiment probed a set of higher dilutions. Incubation was for 17 hours at 30° C. and 900 rpm shaking. […] In 96 well plates, the higher cell dilutions consistently gave the better diacetyl-induced to control ratios (FIG. 11). The best ratio was in the case of the 96-well plate and the 1/20 dilution where the diacetyl-induced absorbance was 0.481 and the uninduced control was 0.079.

In test [4] the target is T1, ODR-10. Put plainly: LacZ reporter assay (ONPG workup) in Cyb-KAGMM yeast expressing ODR-10. The conditions noted are these: ONPG substrate. On the technique in general: A reporter such as luciferase makes a cellular process visible.
The target in test [5] is T1, ODR-10. Description: GFP reporter assay in Cyb-KAGMM yeast expressing ODR-10.

The results in this text go back to US20160060642A1, “G Protein Coupled Receptor Libraries” (COMMONWEALTH SCIENTIFIC AND INDUSTRIAL RESEARCH ORGANISATION, priority 2013, published 2016).

For the compound `CC(=O)C(C)=O` [diacetyl, butane-2,3-dione], the “response (spectra)” value in test [1] is given as “did not show any response”. Moreover, the “response (yellow colour, spectral peak at 420 nm)” value in test [2] (clone in well H9) is on record as “responds”. For the same compound, in test [2] (clone in well H10), the “response (colour or spectra)” value is given as “did not show any response”. The results for the “Abs414 reading after 3 hours” value in test [3] (Abs600 nm=0.5 starting condition) and in test [3] (Abs600 nm=1 starting condition) were 0.521 and 0.247, respectively. Also, in test [3] (96-well plate, 1/20 dilution of starting culture, 17 hours incubation), the “diacetyl-induced absorbance (Abs414 nm)” value is recorded as 0.481. For the same compound, in test [3] (dilutions 1/4 to 1/20 of starting culture in 96 or 48 deep-well plates), the “induction of lacZ” value is listed as “detected in all the conditions except the 1/20 cell dilution in the 48 well plate”. Further, the “maximum increase in signal over background” value in test [4] (700 μM diacetyl, LacZ driven by FUS-2 (so in the source), FIG. 8) is “approximately 6 fold”. For the same compound, the “maximum ligand-induced increase in signal” value in test [4] (1 mM diacetyl, LacZ under FUS-1 promoter, FIG. 9) is given as “approximately 2.5 fold”. The “GFP fluorescence emission relative to uninduced” value in test [5] (50 μM diacetyl, pGK:Odr10 with Fig2:GFP (FIG. 5 panel C)) was “below the uninduced condition”. The “difference between the peak GFP responses with ODR-10 expression and for the vector control” value in test [5] (500 μM diacetyl, best case (FIG. 5a, pGK:Odr10 with Fus1:GFP), 7 hrs induction) is “less than a twofold difference”.
